Our source for the MIC and IC50 values is US11208387B2, “Macrocyclic broad spectrum antibiotics” (Genentech, Inc., priority 2019, dated 2021).

In assay [1] the test system is Acinetobacter baumannii ATCC 17978. The experiment in a line: Serum MIC, broth micro-dilution. The assay is classed as cell-based. Particulars: Acinetobacter baumannii. The method, boiled down:
(§1)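 MIC read after 22 h at 35° C by CLSI broth micro-dilution, with medium containing 50% v/v mouse serum in cation-adjusted Mueller Hinton II broth. Ten 2-fold compound concentrations were tested, starting at 64, 4, 0.5 or 0.13 μg/mL.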

Assay [2] deals with Pseudomonas aeruginosa PA01. In words: Serum MIC, broth micro-dilution. The format is cell-based. Particulars: Pseudomonas aeruginosa, read-out: P. aeruginosa 01 Serum MIC. The method, boiled down:
as §1

Assay [3] has as its system Escherichia coli strain ATCC 25922. The experiment in a line: Serum MIC, broth micro-dilution. The format is cell-based. The settings on record: Escherichia coli, read-out: E. coli 25922 Serum MIC. The method, boiled down:
as §1
In general terms: In broth dilution the organism is exposed to a series of concentrations in liquid medium.

The subject of assay [4] is Klebsiella pneumoniae ATCC 700603. The experiment in a line: Serum MIC, broth micro-dilution. The assay is classed as cell-based. The settings on record: Klebsiella pneumoniae, read-out: K pneumoniae 700603 Serum MIC. The method, boiled down:
as §1

Assay [5] concerns isolated liver mitochondria. The experiment in a line: Mitochondrial oxygen consumption rate (OCR) assay. The format is biochemical, Sprague-Dawley rats. Particulars: isolated rat liver mitochondria, state 3 (S3) respiration, glutamate/malate; Table 3. The method, boiled down:
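Liver mitochondria from male Sprague-Dawley rats preincubated with compounds 1 h on ice (1% DMSO, pH 7.4 buffer), then given glutamate/malate with TTFA (plus ADP for state 3) and phosphorescent O2 probe. Oxygen consumption read 30 min at 30 °C. IC50 (50 μg protein, S3) or UC50 (100 μg, S2) derived from AUC.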

The mark [6] stands for this setting: ATCC17978, 50% v/v mouse serum in Mueller Hinton II cation adjusted Broth, 35° C., 22 hours, Table 4, read-out: A. baumanii 17978 Serum MIC.
The mark [7] stands for this setting: ATCC17978, 50% v/v mouse serum in Mueller Hinton II cation adjusted Broth, 35° C., 22 hours, Table 5, read-out: Acinetobacter baumanii 17978 Serum MIC.
[8] abbreviates: PA01, 50% v/v mouse serum in Mueller Hinton II cation adjusted Broth, 35° C., 22 hours, Table 4.
Setting [9] is: ATCC25922, 50% v/v mouse serum in Mueller Hinton II cation adjusted Broth, 35° C., 22 hours, Table 4.
The mark [10] stands for this setting: ATCC700603, 50% v/v mouse serum in Mueller Hinton II cation adjusted Broth, 35° C., 22 hours, Table 4.
The mark [11] stands for this setting: ATCC17978, 22 h, read-out: A. baumanii 17978 Serum MIC.
Where [12] appears, read: ATCC17978, 22 h, read-out: Acinetobacter baumanii 17978 Serum MIC.

Structures are written as SMILES. ≈ marks a conversion by molar mass, not a printed value. Read-outs that look alike come from different tables or passages of the source.

In the case of `Cc1nc(-c2ccc(OCCC(C)(C)C)cc2)ncc1C(=O)N[C@@H](CCN)C(=O)N(C)[C@@H]1C(=O)N[C@@H](C)C(=O)N[C@H](C(=O)O)Cc2ccc(OC[C@H](O)CN)c(c2)-c2cc1cc(OC[C@H](O)CN)c2O` [Example 27, (8S,11S,14S)-18-hydroxy-11-methyl-14-[methyl-[(2S)-4-amino-2-[[2-[4-(3,3-dimethylbutoxy)-phenyl]-4-methyl-pyrimidine-5-carbonyl]amino]-butanoyl]amino]-10,13-dioxo-3,17-bis[(2R)-3-amino-2-hydroxy-propoxy]-9,12-diazatricyclo-[13.3.1.12,6]icosa-1(18),2(20),3,5,15(19), 16-hexaene-8-carboxylic acid], the minimal inhibitory concentration (MIC) (commonly the lowest concentration found to suppress growth) in assay [1] (setting [6]) turned out to be 12 µM (≈ 11.7 µg/mL); in assay [1] (setting [7]), 12 µM (≈ 11.7 µg/mL); in assay [2] (setting [8]), 8 µM (≈ 7.78 µg/mL); in assay [3] (setting [9]), 0.25 µM (≈ 0.243 µg/mL); in assay [4] (setting [10]), 0.25 µM (≈ 0.243 µg/mL). Moreover, in assay [5], the concentration for half-maximal inhibition (IC50) (in general, the concentration that inhibits the measured activity by half) came out at 20 µM.
Regarding `Cc1nc(-c2ccc(C(C)(C)C)cc2)nc(N)c1C(=O)N[C@@H](CNS(N)(=O)=O)C(=O)N(C)[C@@H]1C(=O)N[C@@H](C)C(=O)N[C@H](C(=O)O)Cc2ccc(OC[C@H](O)CN)c(c2)-c2cc1cc(OC[C@H](O)CN)c2O` [Example 2, (8S,11S,14S)-18-hydroxy-11-methyl-14-[methyl-[(2S)-2-[[4-amino-2-(4-tert-butylphenyl)-6-methyl-pyrimidine-5-carbonyl]amino]-3-(sulfamoylamino)-propanoyl]amino]-10,13-dioxo-3,17-bis[(2R)-3-amino-2-hydroxy-propoxy]-9,12-diazatricyclo-[13.3.1.12,6]icosa-1(18),2(20),3,5,15(19), 16-hexaene-8-carboxylic acid], the MIC in assay [1] (setting [6]) turned out to be 11 µM (≈ 11.1 µg/mL); in assay [1] (setting [7]), 11 µM (≈ 11.1 µg/mL); in assay [2] (setting [8]) it was 3.3 µM (≈ 3.33 µg/mL); in assay [3] (setting [9]) it was 0.5 µM (≈ 0.504 µg/mL); in assay [4] (setting [10]) it was 0.5 µM (≈ 0.504 µg/mL). In assay [5], this compound showed a half-maximal inhibitory concentration (IC50) of 261 µM.
For `Cc1nc(-c2ccc(OC(C)C)cc2)ncc1C(=O)N[C@@H](CCN)C(=O)N(C)[C@@H]1C(=O)N[C@@H](C)C(=O)N[C@H](C(=O)O)Cc2ccc(OC[C@H](O)CN)c(c2)-c2cc1cc(OC[C@H](O)CN)c2O` [Example 20, (8S,11S,14S)-18-hydroxy-11-methyl-14-[methyl-[(2S)-4-amino-2-[[2-(4-isopropoxyphenyl)-4-methyl-pyrimidine-5-carbonyl]amino]-butanoyl]amino]-10,13-dioxo-3,17-bis[(2R)-3-amino-2-hydroxy-propoxy]-9,12-diazatricyclo-[13.3.1.12,6]icosa-1(18),2(20),3,5,15(19), 16-hexaene-8-carboxylic acid], the MIC in assay [1] (setting [11]) turned out to be 16 µM (≈ 14.9 µg/mL); in assay [1] (setting [12]), 16 µM (≈ 14.9 µg/mL); in assay [2] (PA01, 22 h), 64 µM (≈ 59.5 µg/mL); in assay [3] (ATCC25922, 22 h), 0.58 µM (≈ 0.539 µg/mL); in assay [4] (ATCC700603, 22 h), 0.46 µM (≈ 0.428 µg/mL). For the same compound, the half-maximal inhibitory concentration (IC50) in assay [5] was > 250 µM.
`Cc1nc(-c2ccc(C(C)(C)C)cc2)ncc1C(=O)N[C@@H](CCN)C(=O)N(C)[C@@H]1C(=O)N[C@@H](C)C(=O)N[C@H](C(=O)O)Cc2ccc(OC[C@H](O)CN)c(c2)-c2cc1cc(OC[C@H](O)CN)c2O` [Example 23, (8S,11S,14S)-18-hydroxy-11-methyl-14-[methyl-[(2S)-4-amino-2-[[2-(4-tert-butylphenyl)-4-methyl-pyrimidine-5-carbonyl]amino]-butanoyl]amino]-10,13-dioxo-3,17-bis[(2R)-3-amino-2-hydroxy-propoxy]-9,12-diazatricyclo-[13.3.1.12,6]icosa-1(18),2(20),3,5,15(19), 16-hexaene-8-carboxylic acid]: the MIC in assay [1] (setting [6]) came out at 8 µM (≈ 7.42 µg/mL); in assay [1] (setting [7]), 8 µM (≈ 7.42 µg/mL); in assay [2] (setting [8]), 16 µM (≈ 14.8 µg/mL); in assay [3] (setting [9]), 0.22 µM (≈ 0.204 µg/mL); in assay [4] (setting [10]) it was 0.16 µM (≈ 0.148 µg/mL). In addition, inhibition in assay [5] was half-maximal at 22 µM (IC50).
Consider `Cc1nc(-c2ccc(C(C)(C)C)cc2)nc(C)c1C(=O)N[C@@H](CCN)C(=O)N(C)[C@@H]1C(=O)N[C@@H](C)C(=O)N[C@H](C(=O)O)Cc2ccc(OC[C@H](O)CN)c(c2)-c2cc1cc(OC[C@H](O)CN)c2O` [Example 19, (8S,11S,14S)-18-hydroxy-11-methyl-14-[methyl-[(2S)-4-amino-2-[[2-(4-tert-butylphenyl)-4,6-dimethyl-pyrimidine-5-carbonyl]amino]-butanoyl]amino]-10,13-dioxo-3,17-bis[(2R)-3-amino-2-hydroxy-propoxyl]-9,12-diazatricyclo-[13.3.1.12,6]icosa-1(18),2(20),3,5,15(19), 16-hexaene-8-carboxylic acid], for which the MIC worked out at 16 µM (≈ 15.1 µg/mL) in assay [1] (setting [11]); 16 µM (≈ 15.1 µg/mL) in assay [1] (setting [12]); 8 µM (≈ 7.54 µg/mL) in assay [2] (PA01, 22 h); 0.25 µM (≈ 0.236 µg/mL) in assay [3] (ATCC25922, 22 h); 0.25 µM (≈ 0.236 µg/mL) in assay [4] (ATCC700603, 22 h). Besides, the IC50 in assay [5] is > 250 µM.
Regarding `Cc1nc(-c2ccc(C(C)(C)C)cc2)nc(N)c1C(=O)N[C@@H](CNS(N)(=O)=O)C(=O)N(C)[C@@H]1C(=O)N[C@@H](C)C(=O)N[C@H](C(=O)O)Cc2ccc(OC[C@H](O)CN)c(c2)-c2cc1cc(OC[C@@H](O)CN)c2O` [Example 50, (8S,11S,14S)-14-[[(2S)-2-[[4-amino-2-(4-tert-butylphenyl)-6-methyl-pyrimidine-5-carbonyl]amino]-3-(sulfamoylamino)-propanoyl]-methyl-amino]-3-[(2R)-3-amino-2-hydroxy-propoxy]-17-[(2S)-3-amino-2-hydroxy-propoxy]-18-hydroxy-11-methyl-10,13-dioxo-9,12-diazatri-cyclo[13.3.1.12,6]icosa-1(19),2(20),3,5,15,17-hexaene-8-carboxylic acid], the minimal inhibitory concentration (MIC) in assay [1] (setting [6]) is 8 µM (≈ 8.06 µg/mL); in assay [1] (setting [7]), 8 µM (≈ 8.06 µg/mL); in assay [2] (setting [8]), 4 µM (≈ 4.03 µg/mL); in assay [3] (setting [9]) it was 0.75 µM (≈ 0.756 µg/mL); in assay [4] (setting [10]), 0.75 µM (≈ 0.756 µg/mL). The 50% inhibitory concentration (IC50) in assay [5] is > 100 µM.
